Key:
Experiment in all cases: cell-based
[1] = target: EP2 (Homo sapiens, UniProt P43116);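 note: SF295 glioblastoma cells with endogenous EP2 only, PGE2-stimulated cAMP accumulation read by HTRF competitive immunoassay, 45 min pre-incubation then 30 min at room temperature, IBMX in buffer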
[2] = target: EP4 (Homo sapiens, UniProt P35408);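 note: inhibition of PGE2-evoked (6 nM) cAMP accumulation in BT549 breast cancer cells endogenously expressing EP4, cAMP read by HTRF competitive immunoassay after 30 min at room temperature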
[3] = target: PTGER2 (EP2) (Homo sapiens, UniProt P43116)
Excerpt: The assay is using the PathHunter™ HEK 293 PTGER2 and PTGER4 b-arrestin cell lines from DiscoverX. The system is based on the Enzyme Fragment Complementation Technology. Two complementing fragments of the b-galactosidase enzyme are expressed within stably transfected cells. The larger portion of b-gal, termed EA for Enzyme Acceptor, is fused to the C-terminus of b-arrestin 2. The smaller fragment, termed ProLink™ tag, is fused to PTGER2 (EP2) or PTRGER4 (EP4) at the C-terminus. Upon activation, b-arrestin is recruited which forces the interaction of ProLink and EA, allowing complementation of the two fragments of b-gal and the formation of a functional enzyme which is capable of hydrolysing the substrate and generating a chemiluminescent signal.
The HEK 293 PTGER2 b-arrestin cells (DiscoverX 93-021-4C1) are detached from culture dishes with a cell dissociation buffer (Invitrogen, 13151-014), and collected in growing medium (GM: DMEM+Glutamax-I (Invitrogen 32430)/10% FCS, 1% Penicilin/streptomycin). 5000 cells per well of a 384 well plate (white with white bottom Greiner 781080) are seeded in 20 ul per well of GM. Plate is incubated at 37° C., 5% CO2 for 24 hours.
Stock solutions of test compounds are made at a concentration of 10 mM in DMSO, and serially diluted in DMSO to concentrations required for inhibition dose response curves (tested concentration range 10 μM-2 nM or 1 μM-0.2 nM).
PGE2 (Cayman 14010, stock solution: 10 mM in DMSO) is used as agonist at 5 μM final concentration, corresponding to EC80.
Five microliters of diluted compounds are transferred into the assay plate. Plate is pre-incubated 15 minutes at 37° C. Then five microliters of PGE2 (final conc. 5 μM) are transferred into the assay plate. Plate is incubated 120 minutes at 37° C.
Twelve μl of reagent are transferred to the assay plate and incubate for 1 hour at room temperature in the dark. Luminescence counts are read on a BMG Fluostar Optima reader according to manufacturer's instructions.
For each compound concentration calculate of the percentage of activity compared to DMSO control value as average±STDEV. (each concentration is measured in duplicate)
When compounds were measured multiple times, mean values are given.

[4] = target: PTRGER4 (EP4) (Homo sapiens, UniProt P35408);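 note: assay plate preincubated 15 min at 37 °C, after which PGE2 was added at 20 nM final and incubation continued 120 min at 37 °C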
Sequence of PTRGER4 (EP4) (P35408 whole entry): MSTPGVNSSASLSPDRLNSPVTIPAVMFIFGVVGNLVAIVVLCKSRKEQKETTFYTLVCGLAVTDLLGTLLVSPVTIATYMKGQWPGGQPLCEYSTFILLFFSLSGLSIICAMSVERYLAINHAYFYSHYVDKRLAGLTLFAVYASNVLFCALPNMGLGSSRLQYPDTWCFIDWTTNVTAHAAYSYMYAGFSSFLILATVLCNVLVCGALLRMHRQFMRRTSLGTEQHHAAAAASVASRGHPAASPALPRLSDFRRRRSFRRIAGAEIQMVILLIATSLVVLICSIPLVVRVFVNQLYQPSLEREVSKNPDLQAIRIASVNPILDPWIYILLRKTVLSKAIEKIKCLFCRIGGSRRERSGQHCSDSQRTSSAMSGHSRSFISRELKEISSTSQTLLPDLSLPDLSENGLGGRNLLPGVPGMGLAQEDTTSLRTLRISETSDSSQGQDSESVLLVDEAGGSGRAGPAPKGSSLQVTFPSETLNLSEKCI

Sequence of EP4 (P35408 whole entry): as above
Sequence of PTGER2 (EP2) (P43116 whole entry): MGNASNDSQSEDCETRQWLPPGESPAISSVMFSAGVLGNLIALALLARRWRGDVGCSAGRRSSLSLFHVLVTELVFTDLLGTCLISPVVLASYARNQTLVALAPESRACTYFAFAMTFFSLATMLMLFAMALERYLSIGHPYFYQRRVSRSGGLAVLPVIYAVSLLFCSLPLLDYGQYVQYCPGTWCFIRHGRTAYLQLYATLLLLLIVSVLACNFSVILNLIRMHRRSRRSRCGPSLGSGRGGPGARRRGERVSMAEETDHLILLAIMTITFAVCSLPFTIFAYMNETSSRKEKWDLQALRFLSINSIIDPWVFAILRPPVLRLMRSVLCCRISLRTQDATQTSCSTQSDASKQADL
Sequence of EP2 (P43116 whole entry): as above

Row | SMILES | IC50 [1] | IC50 [2] | IC50 [3] | IC50 [4]
1 | CC(C(=O)O)c1ccc(-c2cc(NCCc3ccc(Br)cc3)ncn2)s1 (racemic) [Example 159, rac-2-(5-{6-[2-(4-Bromo-phenyl)-ethylamino]-pyrimidin-4-yl}-thiophen-2-yl)-propionic acid] | 392 nM | 602 nM | – | –
2 | CCOc1cc(-c2cc(NCCc3ccc(SC)cc3OC)ncn2)sc1C(=O)O [Example 4, 3-Ethoxy-5-{6-[2-(2-methoxy-4-methylsulfanyl-phenyl)-ethylamino]-pyrimidin-4-yl}-thiophene-2-carboxylic acid] | 38 nM | 5 nM | – | –
3 | CCOc1cc(-c2cc(NCCc3cc(C)c(C)cc3OC)ncn2)sc1C(=O)O [Example 5, 3-Ethoxy-5-{6-[2-(2-methoxy-4,5-dimethyl-phenyl)-ethylamino]-pyrimidin-4-yl}-thiophene-2-carboxylic acid] | 45 nM | 6 nM | – | –
4 | COc1cc(SC)ccc1CCNc1cc(-c2ccc(C(=O)O)c(OC3CCC3)c2)ncn1 [Example 8, 2-Cyclobutoxy-4-{6-[2-(2-methoxy-4-methylsulfanyl-phenyl)-ethylamino]-pyrimidin-4-yl}-benzoic acid] | 340 nM | 262 nM | – | –
5 | Cn1[nH]c(=O)c2ccc(-c3cc(NCCc4ccc(Br)cc4)ncn3)cc21 [Example 9, 6-{6-[2-(4-Bromo-phenyl)-ethylamino]-pyrimidin-4-yl}-1-methyl-1,2-dihydro-indazol-3-one] | 642 nM | 1080 nM | – | –
6 | COc1cc(-c2cc(NCCc3ccc(Br)cc3)ncn2)ccc1O [Example 10, 4-{6-[2-(4-Bromo-phenyl)-ethylamino]-pyrimidin-4-yl}-2-methoxy-phenol] | 931 nM | 798 nM | – | –
7 | Oc1c(F)cc(-c2cc(NCCc3ccc(Br)cc3)ncn2)cc1F [Example 12, 4-{6-[2-(4-Bromo-phenyl)-ethylamino]-pyrimidin-4-yl}-2,6-difluoro-phenol] | 885 nM | 617 nM | – | –
8 | COc1cc(-c2cc(NCCc3ccc(Br)cc3)ncn2)sc1C1(O)COC1 [Example 13, 3-(5-{6-[2-(4-Bromo-phenyl)-ethylamino]-pyrimidin-4-yl}-3-methoxy-thiophen-2-yl)-oxetan-3-ol] | 294 nM | 636 nM | – | –
9 | O=c1[nH]c(-c2ccc(-c3cc(NCCc4ccc(Br)cc4)ncn3)cc2)no1 [Example 14, 3-(4-{6-[2-(4-Bromo-phenyl)-ethylamino]-pyrimidin-4-yl}-phenyl)-[1,2,4]oxadiazol-5(4H)-one] | 257 nM | 262 nM | – | –
10 | COc1cc(-c2cc(NCCc3ccc(Br)cc3)ncn2)ccc1OCCO [Example 16, 2-(4-{6-[2-(4-Bromo-phenyl)-ethylamino]-pyrimidin-4-yl}-2-methoxy-phenoxy)-ethanol] | 795 nM | 914 nM | – | –
11 | O=C(O)c1sc(-c2cc(NCCc3c(F)cc(Br)cc3F)ncn2)cc1OCCO [Example 32, 5-{6-[2-(4-Bromo-2,6-difluoro-phenyl)-ethylamino]-pyrimidin-4-yl}-3-(2-hydroxy-ethoxy)-thiophene-2-carboxylic acid] | 55 nM | 30 nM | – | –
12 | CCOc1cc(-c2cc(NCCc3c(OC)cc(Br)cc3OC)ncn2)ccc1C(=O)O [Example 52, 4-{6-[2-(4-Bromo-2,6-dimethoxy-phenyl)-ethylamino]-pyrimidin-4-yl}-2-ethoxy-benzoic acid] | 343 nM | 626 nM | – | –
13 | CCOc1cc(-c2cc(NCCc3ccc(F)cc3)ncn2)sc1C(=O)O [Example 80, 3-Ethoxy-5-{6-[2-(4-fluoro-phenyl)-ethylamino]-pyrimidin-4-yl}-thiophene-2-carboxylic acid] | 255 nM | 366 nM | – | –
14 | CCOc1cc(-c2cc(NCCc3ccc(Br)cc3N(C)C)ncn2)sc1-c1noc(=O)[nH]1 [Example 109, 3-(5-{6-[2-(4-Bromo-2-dimethylamino-phenyl)-ethylamino]-pyrimidin-4-yl}-3-ethoxy-thiophen-2yl)-[1,2,4]oxadiazol-5(4H)-one] | 558 nM | 254 nM | – | –
15 | CCOc1cc(-c2cc(NCCc3ccc(Br)cc3Cl)ncn2)sc1-c1noc(=O)[nH]1 [Example 124, 3-(5-{6-[2-(4-Bromo-2-chloro-phenyl)-ethylamino]-pyrimidin-4-yl}-3-ethoxy-thiophen-2-yl)-[1,2,4]oxadiazol-5(4H)-one] | 46 nM | 36 nM | – | –
16 | CCOc1cc(-c2cc(NCCc3ccc(Br)cc3)ncn2)sc1-c1noc(C2COC2)n1 [Example 142, [2-(4-Bromo-phenyl)-ethyl]-{6-[4-ethoxy-5-(5-oxetan-3-yl-[1,2,4]oxadiazol-3-yl)-thiophen-2-yl]-pyrimidin-4-yl}-amine] | 700 nM | 571 nM | – | –
17 | CCOc1c(C(=O)O)ccc(-c2cc(NCCc3c(F)cc(Br)cc3F)ncn2)c1F [Example 274, 4-{6-[2-(4-Bromo-2,6-difluoro-phenyl)-ethylamino]-pyrimidin-4-yl}-2-ethoxy-3-fluoro-benzoic acid] | – | – | 160 nM | 646 nM
18 | CCOc1cc(-c2cc(NCCc3c(F)cc(Br)cc3F)ncn2)ccc1-c1noc(=S)[nH]1 [Example 290, 3-(4-{6-[2-(4-Bromo-2,6-difluoro-phenyl)-ethylamino]-pyrimidin-4-yl}-2-ethoxy-phenyl)-[1,2,4]oxadiazole-5(4H)-thione] | – | – | 48 nM | 28 nM
19 | CCOc1cc(-c2cc(NCCc3c(F)cc(Br)cc3F)ncn2)ccc1C(=O)NCCOC [Example 301, 4-{6-[2-(4-Bromo-2,6-difluoro-phenyl)-ethylamino]-pyrimidin-4-yl}-2-ethoxy-N-(2-methoxy-ethyl)-benzamide] | – | – | 118 nM | 640 nM
20 | CCOc1cc(-c2cc(NCCc3c(F)cc(Br)cc3F)ncn2)ccc1C(=O)NCC(C)(C)O [Example 302, 4-{6-[2-(4-Bromo-2,6-difluoro-phenyl)-ethylamino]-pyrimidin-4-yl}-2-ethoxy-N-(2-hydroxy-2-methyl-propyl)-benzamide] | – | – | 121 nM | 565 nM
21 | CCCc1cc(-c2cc(NCCc3c(F)cc(Br)cc3F)ncn2)ccc1C(=O)NCCO [Example 306, 4-{6-[2-(4-Bromo-2,6-difluoro-phenyl)-ethylamino]-pyrimidin-4-yl}-N-(2-hydroxy-ethyl)-2-propyl-benzamide] | – | – | 97 nM | 403 nM
22 | CCCc1cc(-c2cc(NCCc3c(F)cc(Br)cc3F)ncn2)ccc1C(=O)NCCOC [Example 307, 4-{6-[2-(4-Bromo-2,6-difluoro-phenyl)-ethylamino]-pyrimidin-4-yl}-N-(2-methoxy-ethyl)-2-propyl-benzamide] | – | – | 219 nM | 781 nM
23 | CCCc1cc(-c2cc(NCCc3c(F)cc(Br)cc3F)ncn2)ccc1C(=O)NCC(C)(C)O [Example 308, 4-{6-[2-(4-Bromo-2,6-difluoro-phenyl)-ethylamino]-pyrimidin-4-yl}-N-(2-hydroxy-2-methyl-propyl)-2-propyl-benzamide] | – | – | 156 nM | 164 nM

The next lines start with the values.

Row | IC50 [1] | IC50 [2] | IC50 [3] | IC50 [4] | SMILES
24 | – | – | 295 nM | 199 nM | CCCc1cc(-c2cc(NCCc3c(F)cc(Br)cc3F)ncn2)ccc1Cc1noc(=O)[nH]1 [Example 284, 3-(4-{6-[2-(4-Bromo-2,6-difluoro-phenyl)-ethylamino]-pyrimidin-4-yl}-2-propyl-benzyl)-[1,2,4]oxadiazol-5(4H)-one]
25 | – | – | 100 nM | 893 nM | COc1cc(C(N)=O)ccc1-c1cc(NCCc2c(F)cc(Br)cc2F)ncn1 [Example 292, 4-{6-[2-(4-Bromo-2,6-difluoro-phenyl)-ethylamino]-pyrimidin-4-yl}-3-methoxy-benzamide]
26 | – | – | 21 nM | 236 nM | CCOc1cc(-c2cc(NCCc3c(F)cc(Br)cc3F)ncn2)ccc1C(N)=O [Example 297, 4-{6-[2-(4-Bromo-2,6-difluoro-phenyl)-ethylamino]-pyrimidin-4-yl}-2-ethoxy-benzamide]
27 | – | – | 128 nM | 301 nM | CCOc1cc(-c2cc(NCCc3c(F)cc(Br)cc3F)ncn2)ccc1C(=O)NC [Example 298, 4-{6-[2-(4-Bromo-2,6-difluoro-phenyl)-ethylamino]-pyrimidin-4-yl}-2-ethoxy-N-methyl-benzamide]
28 | – | – | 145 nM | 255 nM | CCNC(=O)c1ccc(-c2cc(NCCc3c(F)cc(Br)cc3F)ncn2)cc1OCC [Example 299, 4-{6-[2-(4-Bromo-2,6-difluoro-phenyl)-ethylamino]-pyrimidin-4-yl}-2-ethoxy-N-ethyl-benzamide]
29 | – | – | 44 nM | 163 nM | CCCc1cc(-c2cc(NCCc3c(F)cc(Br)cc3F)ncn2)ccc1C(N)=O [Example 303, 4-{6-[2-(4-Bromo-2,6-difluoro-phenyl)-ethylamino]-pyrimidin-4-yl}-2-propyl-benzamide]
30 | – | – | 203 nM | 628 nM | CCCc1cc(-c2cc(NCCc3c(F)cc(Br)cc3F)ncn2)ccc1C(=O)NCC [Example 305, 4-{6-[2-(4-Bromo-2,6-difluoro-phenyl)-ethylamino]-pyrimidin-4-yl}-N-ethyl-2-propyl-benzamide]
31 | – | – | 352 nM | 875 nM | Fc1cc(Br)cc(F)c1CCNc1cc(-c2ccc3nccn3c2)ncn1 [Example 309, [2-(4-Bromo-2,6-difluoro-phenyl)-ethyl]-(6-imidazo[1,2-a]pyridin-6-yl-pyrimidin-4-yl)-amine]
32 | – | – | 216 nM | 776 nM | OCCOc1ccc(-c2cc(NCCc3c(F)cc(Br)cc3F)ncn2)cc1 [Example 311, 2-(4-{6-[2-(4-Bromo-2,6-difluoro-phenyl)-ethylamino]-pyrimidin-4-yl}-phenoxy)-ethanol]
33 | – | – | 175 nM | 703 nM | O=C1Cc2cc(-c3cc(NCCc4c(F)cc(Br)cc4F)ncn3)ccc2N1 [Example 312, 5-{6-[2-(4-Bromo-2,6-difluoro-phenyl)-ethylamino]-pyrimidin-4-yl}-1,3-dihydro-indol-2-one]
34 | – | – | 143 nM | 333 nM | COC(=O)Nc1ccc(-c2cc(NCCc3c(F)cc(Br)cc3F)ncn2)cc1 [Example 313, (4-{6-[2-(4-Bromo-2,6-difluoro-phenyl)-ethylamino]-pyrimidin-4-yl}-phenyl)-carbamic acid methyl ester]
